Data taken from publication PMC5068747, “Using C. elegans Forward and Reverse Genetics to Identify New Compounds with Anthelmintic Activity” (PLoS Neglected Tropical Diseases, 2016).
“Also recorded” adds a separate entry of the source. Like-named read-outs stand apart in the source and are kept apart here.

Tests used:
[1] = tested on: C. elegans VC2010; experiment: Manual phenotyping pilot screen of 3,584 known compounds (CCBN library); type: in vivo, Caenorhabditis elegans; conditions: dissecting microscope, positively confirmed drugs of CCBN library
[2] = tested on: C. elegans VC2010 (wild type); experiment: WormScan screen of C. elegans growth, fecundity, motility and mortality; type: in vivo, Caenorhabditis elegans; conditions: read-out: Nematode IC50
Experimental: All compound libraries were stored in 96-well plates, with 80 drugs per plate (columns 1 and 12 left empty). A BioGrid BG600 pinning robot (Digilab / BioRobotics) was used for compound transfer. The robot uses a 96-pin tool (0.7 mm dia.) to transfer a nominal volume of 340 nL of compound. For retesting, compounds were hand pinned from the original library plates to assay plates using a single 0.7 mm dia. pin. The assay plates were 96-well clear flat-bottom microplates containing 2% χ1666 E.coli bacteria in 0.5X Liquid Nematode Growth Media (LNGM) plus cholesterol (Bacteria were mass-grown in rich media, and harvested by centrifugation to produce a thick paste of bacterial cells that was kept frozen at -20°C. Cells were resuspended at 2% W/V in 0.5X LNGM to produce liquid worm food). Using a COPAS Biosort (Union Biometrica), two L4 to young adult stage VC2010 worms were added to each well of the plate in a final volume of 45 μL. After five days of exposure to the compounds, the plates were scanned and the data analyzed. A five day time period was chosen to be able to observe effects over all stages of the life cycle and through at least one round of replication. The initial proof-of-principle primary screen was performed manually using a dissecting microscope. Phenotypes scored included decreased motility, reduced brood size, and/or death as described previously. For high throughput screening of the Chembridge and Maybridge compound libraries we used the program WormScan, which was adapted for screening 96-well flat-bottom LNGM plates. Using WormScan it was possible to screen four 96-well plates at a time. Plates were scanned twice, at a resolution of 1200 dots per inch, 16-bit grayscale, producing a jpeg image. The light intensity produced by the scanner was sufficient to cause negative phototaxis equivalent to a physical stimulus for mortality determination. The time required to scan four 96-well plates using an Epson Perfection V700 Photo Scanner was less than ten minutes. The time to screen a single plate was less than 1.2 minutes, with less than ten seconds between scans.
WormScan was used to screen for the same phenotypes as in the manual screen (reduced brood size, reduced behavior/motility response and increased mortality). Two sequential scans for each 96-well plate were aligned to a reference region of interest (ROI). Image analysis was based on a difference image score calculated for each ROI. The difference image score (WormScan score) was normalized using a “percent of control” method to derive a normalized WormScan score. […] Wild-type growth in 1% DMSO (Fig 1A) results in a normalized WormScan score of 100. Exposure to 50 nM ivermectin gives a score of 0 (Fig 1C), and complete absence of worms gives a score of 0 (Fig 1D). For the primary screen the WormScan score was calculated using custom macro scripts written for Fiji. For secondary screening and any subsequent studies the WormScan score was calculated using a standalone Java program (See supplemental). Probit regression of mortality was calculated using Mathematica 8.0.

[3] = tested on: Human embryonic kidney (HEK293) cells; experiment: HEK293 viability, MTT colorimetric assay; type: cell-based; conditions: read-out: Mammalian IC50
Experimental: Potential anthelmintic compounds identified from primary screening were further tested against mammalian cells and yeast to determine whether they had deleterious effects in those organisms. Human embryonic kidney (HEK293) cells were grown in Dulbecco’s Modified Eagle’s Medium (DMEM; Sigma) containing 5% fetal bovine serum (FBS; Sigma) in 96-well plates tissue culture plates. Compounds were added 24h post-plating at 10, 30, 100, or 300 μM final concentrations. Dimethyl sulfoxide (DMSO) was used as a negative control at 0.1%. Cells were treated for 24 or 48 hours, after which time viability was assessed using a 3-(4,5-dimethylthiazol-2-yl)-2,5-diphenyltetrazolium bromide (MTT) colorimetric assay. Percent viability was determined by comparing treatment values to DMSO control values.

[4] = tested on: S. cerevisiae yeast strain BY4743; experiment: Yeast growth rate (OD600) dose titration; type: cell-based; conditions: BY4743, YPD, growth rate reduced by 50%
Experimental: The S. cerevisiae yeast strain BY4743 (MATa/α his3Δ1/his3Δ1 leu2Δ0/leu2Δ0 LYS2/lys2Δ0 met15Δ0/MET15 ura3Δ0/ura3Δ0) was used for all yeast experiments and was grown using yeast extract peptone dextrose (YPD) media at pH 7 [52]. BY4743 was grown overnight to initial log phase and was then grown with the compound identified in the C. elegans assay. The growth rate was quantified by continuously monitoring the optical density of the liquid yeast growth at OD600. The compound was screened in a dose-titration in YPD as described. The IC50 was the concentration required to reduce the growth rate or Average G value by 50% compared to a vehicle control (2% DMSO).

Compound | Worm Reaction in Drug [1] | further results
CC(=O)O[C@@]12C[C@@H](C)[C@@]3(O)[C@@H](C=C(CO)C[C@]4(O)C(=O)C(C)=C[C@@H]34)[C@@H]1C2(C)C [12-Deoxyphorbol 13-acetate] | SLOW only L1/2s (& orig adults), lots unhatched eggs | –
CC(=O)OCC1=C[C@H]2[C@@H]3C(C)(C)[C@]3(OC(=O)Cc3ccccc3)C[C@@H](C)[C@]2(O)[C@@H]2C=C(C)C(=O)[C@@]2(O)C1 [12-Deoxyphorbol 13-phenylacetate 20-acetate] | Adults DEAD, only L1s/2s, not starved | –
Cl.c1ccc([C@H]2CN3CCSC3=N2)cc1 [(-)-Tetramisole hydrochloride] | UNC! Paralyzed, lots of worms, 1 starved, 1 not | –
CNC(=O)O/N=C/C(C)(C)SC [Aldicarb] | UNC adults, but definitely STARVED | –
COc1cccc2c1cc([N+](=O)[O-])c1c(C(=O)O)cc3c(c12)OCO3 [Aristolochic acid A] | SLOW, 1:only L2s, not starved, 2:1 sterile adult? | –
CCCCNC(=O)n1c(NC(=O)OC)nc2ccccc21 [Benomyl, reference compound] | – | IC50 ([2]; Caenorhabditis elegans, 120 h): 60 µM; IC50 ([3]; Homo sapiens): 8 µM; IC50 ([4]; Saccharomyces cerevisiae): 750 µM
NNC(=O)CCn1c2ccc(Cl)cc2c2cc(Cl)ccc21 [CID 766260] | – | IC50 ([2]; C. elegans, 5 days exposure): 282 µM; IC50 [3]: 44 µM; IC50 [4]: 113 µM
O=C1c2ccc(-c3nc4cc(Cl)ccc4c(=O)o3)cc2C(=O)N1c1ccccc1-c1ccccc1 [CID 2222671] | – | IC50 ([2]; C. elegans, 5 days exposure): > 500 µM; IC50 [3]: 234 µM; IC50 [4]: > 1000 µM
N#CSCCCOc1ccccc1Br [CID 2238042] | – | IC50 ([2]; C. elegans, 5 days exposure): 357 µM; IC50 [3]: 67 µM; IC50 [4]: 338 µM
Fc1ccc(COc2ccc(-c3nnco3)cc2)cc1 [CID 2740991] | – | IC50 ([2]; C. elegans, 5 days exposure): 19 µM; IC50 [3]: 83 µM; IC50 [4]: > 1000 µM
CC[C@@]1(O)C(=O)OCc2c1cc1n(c2=O)Cc2cc3ccccc3nc2-1 [Camptothecin] | SLOW - progeny paralyzed, only adults moving, not starved; also recorded: SLOW 1 well only 3 worms (dead ones, unhatched eggs present), other starved, lots of babies, 2nd gen | –
CC[C@@]1(O)C(=O)OCc2c1cc1n(c2=O)Cc2cc3ccccc3nc2-1 [Camptothecine (S, +)] | unc-ish, few progeny, sickly gonads not developed properly ie. Adults but not eggs, etc. | –
CCOP(=S)(OCC)Oc1nc(Cl)c(Cl)cc1Cl [Chlorpyrifos] | both DEAD! | –
Cl.Clc1ccc(Cn2c(CN3CCCC3)nc3ccccc32)cc1 [Clemizole Hydrochloride] | mostly young ones, a few adults but look sterile, a little unc | –
COc1cc2c(cc1OC)[C@@H]1C(=O)c3ccc4c(c3O[C@@H]1CO2)C=CC(C)(C)O4 [Deguelin] | SLOW, VERY few progeny, not starved, not very mobile | –
COc1cc2c(cc1OC)[C@@H]1C(=O)c3ccc4c(c3O[C@@H]1CO2)CC(C(C)C)O4 (stereo partly drawn) [Dihydrorotenone] | SLOW uncish only 1 gen ns | –
COC(=O)Nc1nc2ccc(Sc3ccccc3)cc2[nH]1 [Fenbendazole] | UNC (lots of worms) | –
CN(C)c1ccc(C(=C2C=CC(=[N+](C)C)C=C2)c2ccc(N(C)C)cc2)cc1 [Gentian Violet] | SLOW! Ns, uncish, only 1 gen past | –

Compound | Worm Reaction in Drug [1] | further results
CCCCCC(=O)O[C@]1(C(C)=O)CC[C@H]2[C@@H]3CCC4=CC(=O)CC[C@]4(C)[C@H]3CC[C@@]21C [Hydroxyprogesterone Caproate] | slower, one starved one not | –
COC(=O)Nc1nc2ccc(SC(C)C)cc2[nH]1 [Methiazole] | UNC! Lots of worms | –
COP(=S)(OC)Oc1ccc([N+](=O)[O-])cc1 [Methyl Parathione] | SLOW, UNC, ns, 1 gen only | –
C=C(C)[C@@]12O[C@@]3(c4ccccc4)O[C@@H]1[C@@H]1[C@@H]4O[C@]4(CO)[C@@H](O)[C@]4(O)C(=O)C(C)=C[C@H]4[C@@]1(O3)[C@H](C)[C@H]2OC(=O)/C=C/C=C/c1ccccc1 [Mezerein] | Adults DEAD, only L1s/2s, not starved | –
CCCCc1ccc2[nH]c(NC(=O)OC)nc2c1 [Parbendazole] | UNC! Lots of worms in 1, not starved in 2 | –
CCCC(=O)O[C@@H]1[C@@H](C)[C@@]2(O)[C@@H](C=C(CO)C[C@]3(O)C(=O)C(C)=C[C@@H]23)[C@@H]2C(C)(C)[C@]12OC(=O)CCC [Phorbol 12, 13-dibutyrate] | SLOW only L1/2s (one gen. only), not starved | –
CC(Cc1ccccc1)NCCC(c1ccccc1)c1ccccc1 (stereo not drawn) [Prenylamine Lactate] | few progeny, not starved stalls at late larval? | –
C=C1C([C@]2(C)C(CC(=O)OC)[C@@](C)(COC(C)=O)OC(=O)C[C@@H]2OC(C)=O)[C@@H](OC=O)[C@H](OC(=O)C(OC(C)=O)C(C)CC)[C@@]2(C)[C@H](c3ccoc3)CC(=O)C12O (stereo partly drawn) [Prieuranin Acetate] | SLOW, barely 1 gen, ns; one well = only 1 worm | –
C=C1[C@@H]([C@@]2(C)[C@@H](OC(C)=O)CC(=O)O[C@](C)(COC(C)=O)[C@@H]2C(=O)OC)[C@@H](OC=O)[C@H](OC(=O)[C@H](O)[C@H](C)CC)[C@@]2(C)[C@H](c3ccoc3)CC(=O)[C@]12O [Prieurianin] | SLOW! Only orig adults, one well = dead, ns | –
O=C1c2ccc(O)c(O)c2C(=O)c2c(O)ccc(O)c21 [Quinalizarin] | SLOW, unc, ns | –
CCN(CC)C(=O)NC1C=C2c3cccc4[nH]cc(c34)C[C@H]2N(C)C1.O=C(O)/C=C\C(=O)O (stereo partly drawn) [R(+)-Lisuride hydrogen maleate] | UNCish, starved but slow, lots of worms | –
C=C(C)[C@H]1Cc2c(ccc3c2O[C@@H]2COc4cc(OC)c(OC)cc4[C@@H]2C3=O)O1 [Rotenone] | SLOW, only one gen., few, not starved | –
CC(C)[C@@]1(O)[C@@H](OC(=O)c2ccc[nH]2)[C@@]2(O)[C@@]3(C)C[C@]4(O)O[C@@]5([C@H](O)[C@@H](C)CC[C@]35O)[C@@]2(O)[C@@]14C [Ryanodine] | UNC! 1: lots and starved, 2: few, not starved, less uncish | –
COP(=O)(OC)C(O)C(Cl)(Cl)Cl (stereo not drawn) [Trichlorfon] | VERY unhappy, unc-ish, a few dpy/hypercontracted animals | –
CC(C)(C)c1cc(/C=C(\C#N)C(N)=S)cc(C(C)(C)C)c1O [Tyrphostin AG 879] | SLOW! Only on 2nd gen, ns | –
COc1ccccc1NC(=O)Nc1nc(-c2cccnc2)nc2ccccc12 [VUF 5574] | uncish adults, starved | –
Avermectin B1 | adults DEAD | –
